The test system of data set [1] is HepG2 cells. Put plainly: Cellular content of adenine and cordycepin nucleotides by LC-MS. It is filed as cell-based, human. The note with it: 1 h. The method, then: After treatment, cells for nucleotide analysis were lysed in 70% perchloric acid and the acid extracted as described previously ([Hawley et al., 2010]). The levels of AMP, ADP, ATP, CoMP, CoDP and CoTP were measured using a TSQ Quantiva (with an ion Max NG source) interfaced with an Ultimate 3000 Liquid Chromatography system (ThermoScientific). Separation of all compounds was achieved using a porous graphitic carbon column (HyperCarb 30x1 mm ID […]; Part No: C-35003-031030, Thermo-Scientific) as described previously ([Ross et al., 2017]) with some modifications. Mobile phase buffer A consisted of 0.3% (v/v) formic acid adjusted to pH 9 with ammonia prior to a 1:10 dilution. Mobile phase buffer B was 80% (v/v) acetonitrile. The column was maintained at a controlled temperature of 40°C and equilibrated with 10% buffer B for 5 min at a constant flow rate of 0.05 mL/min. Aliquots of 1μL of each sample were loaded onto the column and compounds eluted with a linear gradient from 10% buffer B to 12% buffer B within 1 min, then 12% B to 100% B within 2 min; the column was then washed for 4 min with 100% Buffer B. Eluents were sprayed into the TSQ Quantiva using Ion Max NG ion source with ion transfer tube temperature at 350°C and vaporizer temperature 30°C. The TSQ Quantiva was run in negative mode with a spray voltage of 3500, sheath gas 40, aux gas 20 and sweep gas 2. Levels of ATP, ADP and AMP were measured using multiple reactions monitoring mode (MRM) with transitions described previously ([Ross et al., 2017]). For CoMP, CoDP and CoTP, optimised collision energies and radio frequencies were determined by infusing the pure compounds. Two transitions were used to monitor each of the three compounds, CoMP (330.22>134.01, 330.22>195.11), CoDP (410>256.67, 410>392.0) and CoTP (490>158.89, 490.11>472.11).

The test system of data set [2] is AMPK. Put plainly: Phosphorylation of AMPK, ACC and Raptor in HepG2 cells (western blotting). The format is cell-based, human. The note with it: cordycepin at 100 μM and above, 1 h. The method, then:
SDS-PAGE for AMPK and Raptor was performed using precast Bis-Tris 4–12% gradient polyacrylamide gels in the MOPS buffer system (Invitrogen). SDS-PAGE for ACC was performed using precast Tris-Acetate 3–8% gradient polyacrylamide gels in the Tris-Acetate buffer system (Invitrogen). Proteins were transferred to nitrocellulose membranes using the iBlot2 system (Invitrogen). Membranes were blocked for 1 hr in Li-Cor Odyssey blocking buffer. The membranes were probed with appropriate antibody (0.1–1 μg/ml) in Li-Cor Odyssey blocking buffer, except where the blotting enhancement system was used (Thermo Scientific; as per manufacturers’ instructions). Detection was performed using secondary antibody (1 μg/ml) coupled to IR 680 or IR 800 dye, or IR-streptavidin 800 dye, and the membranes were scanned using the Li-Cor Odyssey IR imager. Protein concentrations were determined by Coomassie Blue binding with bovine serum albumin as standard ([Bradford, 1976]).

For data set [3], the system named is AMPK. Also on record: method as in Guo et al., 2010. The following applies: HepG2 cells, medium without serum but with 0.02% (w/v) BSA; ref Guo et al., 2010; cited from earlier work.
The subject of data set [4] is AMPK. Put plainly: AMPK activation in HepG2 cells in medium without serum but with 0.02% BSA. The note with it: medium with 0.02% BSA vs 10% serum. It is filed as cell-based, human. The method, then: (§1) Endogenous AMPK in crude cell lysates was first immunoprecipitated using an equal mixture of anti-α1 and –α2 antibodies (150 μg protein) by incubation at 4°C for 2 hr on a roller mixer. After extensive washing, the immunoprecipitates were assayed for AMPK activity (50 μg per assay, total assay volume 50 μl) using the AMARA peptide (200 μM) as substrate in the presence of 200 μM AMP, 5 mM MgCl2 and 200 μM [γ-^32P]ATP ([Fyffe et al., 2018]).

On the set-up of data set [5]: method as in Wei et al., 2009. The following applies: mice, single oral dose of 63 mg/kg; ref Wei et al., 2009; cited from earlier work.
For data set [6], the system named is HepG2 cells. Briefly: Cellular oxygen consumption (Seahorse XF24). It is filed as cell-based, human. The method, then:
Cellular oxygen consumption rate (OCR) was measured using a Seahorse XF24 Extracellular Flux Analyser with 50,000 cells per well, as described previously ([Hawley et al., 2010]). HepG2 cells were cultured overnight in 24 well plates (50,000 cells/well) in standard medium as above. One hour before the experiment, the medium was replaced with 675 μl of unbuffered medium, pH 7.4: 8.3 g/L DMEM base (Sigma), 2 mM GlutaMax-1, 5 mM glucose, 32 mM NaCl, and 40 μM Phenol Red. Compounds (75 μl) were injected into wells as specified, and OCR continuously measured as described by the manufacturers of the Analyser ([Wu et al., 2007]).

Data set [7] has as its system AMPK. Briefly: AMPK activity in anti-AMPK-α immunoprecipitates from HepG2 cells treated with cordycepin. The format is cell-based, human. The method, then:
HepG2 cells ([…]) were cultured in Minimum Essential Medium (MEM) supplemented with 10% (v/v) FBS, 1% (v/v) non-essential amino acids and 1% (v/v) penicillin/streptomycin. Transient transfection of DNAs encoding FLAG-tagged AMPK-γ2 or an R531G mutant of AMPK-γ2 were carried out 36-48 hr prior to experiments using Fugene 6 according to manufacturers’ instructions. U2OS cells ([…]) were cultured in Dulbecco’s Modified Eagle’s Medium (DMEM) supplemented with 10% (v/v) FBS and 1% (v/v) penicillin/streptomycin.
as §1

As for `Nc1ncnc2c1ncn2[C@@H]1O[C@H](CO)C[C@H]1O` [cordycepin, 3′-deoxyadenosine], the “AMPK activation and CoMP formation” value in data set [1] (30 μM cordycepin or below) is listed as “neither AMPK activation nor CoMP formation was observed”. Besides, in data set [1] (1 mM cordycepin), the “decrease in cellular ADP content” value is recorded as 14 fold, the “decrease in cellular AMP content” value is 5 fold and the “drop in cellular ATP content” value is 100 fold. For the same compound, the “phosphorylation of Thr172 on AMPK, ACC1 Ser80 and Raptor Ser792” value in data set [2] is recorded as “increased”. Besides, the “concentration at which AMPK was activated” value in data set [3] is not below 1 µM. Moreover, in data set [4], the “potency of AMPK activation compared with medium containing serum” value is listed as “much more potent”. In data set [5], the peak plasma concentration is 10 µM, the plasma half-life is recorded as 2.1 h and the “time to peak plasma concentration” value is recorded as 1.5 h. Further, in data set [6] (30 μM to 1 mM), the “effect on basal oxygen uptake” value is recorded as “only minor effects”. For the same compound, in data set [6] (300 μM after 45 min and 1 mM after 30 and 45 min), the “inhibition of basal oxygen uptake” value was “modest inhibition”. Besides, in data set [6] (after addition of the uncoupler 2,4-dinitrophenol), the “effect on maximal oxygen uptake” value was “no significant effects”. Further, the “effect on residual oxygen uptake” value in data set [6] (after subsequent addition of rotenone and antimycin A) is given as “no significant effects”. The AMPK activation entry in data set [7] (30 μM cordycepin, 1 h, medium with serum) is reported as “No activation was evident”. Moreover, the “time of return of AMPK phosphorylation and activation to baseline” value in data set [7] (100 μM cordycepin, time course) is on record as not above 4 h. Also, the “peak increase in phosphorylation and activation of AMPK” value in data set [7] (100 μM cordycepin, time course, at 1 h) is reported as “≈ 2 fold”. The EC50 in data set [7] (cordycepin 1 h, medium with serum, read-out: half-maximal effect (EC50) on AMPK kinase activity) came to 310 ± 60 µM. The “kinase activity of AMPK, maximum increase” value in data set [7] (cordycepin 1 h, medium with serum, ±SEM) is on record as 7 ± 1 fold.

The record behind these values is PMC7031697, “Mechanism of Activation of AMPK by Cordycepin” (Cell Chemical Biology, 2020).
